# Data reported in US20070203206A1, “2-Pyrrolidone Derivatives And Use Thereof As Factor Xa Inhibitors” (priority 2003, published 2007).
# pKi: −log10 of the molar value. Where a name gives a salt, the structure may show the parent alone.
# Target: T1, human Factor Xa (Homo sapiens, UniProt P00742)
# T1 construct: containing human Factor Xa (final conc. Of 0.0003 U·ml-1)
# Assay: In vitro fluorogenic assay for inhibition of Factor Xa
# Type: biochemical
# Settings: Ki value
# Protocol: In Vitro Assay for Inhibition of Factor Xa
# Compounds of the present invention were tested for their Factor Xa inhibitory activity as determined in vitro by their ability to inhibit human Factor Xa in a fluorogenic assay, using Rhodamine 110, bis-CBZ-glycylglycyl-L-arginine amide as the fluorogenic substrate. Compounds were diluted from a 10 mM stock solution in dimethylsulfoxide at appropriate concentrations. Assay was performed at room temperature using buffer consisting of: 50 mM Tris-HCl, 150 mM NaCl, 5 mM CaCl2, pH 7.4. containing human Factor Xa (final conc. Of 0.0003 U·ml-1). Compound and enzyme were preincubated for 15 min prior to addition of the substrate (final conc. of 10 μM). The reaction was stopped after 3 hrs with the addition of H-D-Phe-Pro-Arg-Chloromethylketone. […] To obtain IC50 values the data were analysed using ActivityBase® and XLfit®.
# Calculation of Ki values: Ki=IC50/(1+[Substrate]/Km)
# The Ki value for the above assay can be obtained by dividing the IC50 value by 1.6.
# T1 sequence (P00742 235-488 limits assumed): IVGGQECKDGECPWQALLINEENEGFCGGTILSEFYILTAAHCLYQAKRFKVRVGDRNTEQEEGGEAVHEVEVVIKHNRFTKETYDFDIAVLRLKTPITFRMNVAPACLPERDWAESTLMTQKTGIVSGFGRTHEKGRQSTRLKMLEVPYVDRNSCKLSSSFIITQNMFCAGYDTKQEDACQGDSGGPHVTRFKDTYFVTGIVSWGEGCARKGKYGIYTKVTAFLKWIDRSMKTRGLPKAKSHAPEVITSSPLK
# T1 sequence (P00742 41-179 partner limits assumed): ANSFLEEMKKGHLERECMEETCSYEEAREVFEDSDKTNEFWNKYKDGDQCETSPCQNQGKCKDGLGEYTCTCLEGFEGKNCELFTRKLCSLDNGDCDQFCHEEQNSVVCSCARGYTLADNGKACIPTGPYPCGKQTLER
row,SMILES,pKi
1,"C/C(=C\S(=O)(=O)NC1CCN(c2ccc(C(=O)N(C)CCc3c[nH]cn3)cc2F)C1=O)c1ccc(Cl)s1 (centres unmarked) [Example 31, 4-[3-({[(1E)-2-(5-Chloro-2-thienyl)-1-propen-1-yl]sulfonyl}amino)-2-oxo-1-pyrrolidinyl]-3-fluoro-N-[2-(1H-imidazol-4-yl)ethyl]-N-methylbenzamide]",> 7.00
2,"COCCN(C)C(=O)c1ccc(N2CCC(NS(=O)(=O)/C=C(\C)c3ccc(Cl)s3)C2=O)c(F)c1 (centres unmarked) [Example 5, 4-[3-({[(1E)-2-(5-Chloro-2-thienyl)-1-propen-1-yl]sulfonyl}amino)-2-oxo-1-pyrrolidinyl]-3-fluoro-N-methyl-N-[2-(methyloxy)ethyl]benzamide]",> 6.00
3,"CNCCN(C)C(=O)c1ccc(N2CCC(NS(=O)(=O)/C=C(\C)c3ccc(Cl)s3)C2=O)c(F)c1 (centres unmarked) [Example 1, 4-[3-({[(1E)-2-(5-Chloro-2-thienyl)-1-propen-1-yl]sulfonyl}amino)-2-oxo-1-pyrrolidinyl]-3-fluoro-N-methyl-N-[2-(methylamino)ethyl]benzamide]",> 7.00
4,"C/C(=C\S(=O)(=O)NC1CCN(c2ccc(C(=O)N(C)CCc3cccnc3)cc2F)C1=O)c1ccc(Cl)s1 (centres unmarked) [Example 30, 4-[3-({[(1E)-2-(5-Chloro-2-thienyl)-1-propen-1-yl]sulfonyl}amino)-2-oxo-1-pyrrolidinyl]-3-fluoro-N-methyl-N-[2-(3-pyridinyl)ethyl]benzamide]",> 7.00
5,"C/C(=C\S(=O)(=O)NC1CCN(c2ccc(C(=O)N(C)Cc3ccccn3)cc2F)C1=O)c1ccc(Cl)s1 (centres unmarked) [Example 3, 4-[3-({[(1E)-2-(5-Chloro-2-thienyl)-1-propen-1-yl]sulfonyl}amino)-2-oxo-1-pyrrolidinyl]-3-fluoro-N-methyl-N-(2-pyridinylmethyl)benzamide]",> 7.00

# Same assay, conditions: human Factor Xa, Rhodamine 110 bis-CBZ-glycylglycyl-L-arginine amide substrate 10 μM, 15 min preincubation, room temperature, pH 7.4; Ki = IC50/1.6; read-out: Ki value
row,SMILES,pKi
1,"C/C(=C\S(=O)(=O)NC1CCN(c2ccc(C(=O)N(C)CCO)cc2F)C1=O)c1ccc(Cl)s1 (centres unmarked) [Example 2, 4-[3-({[(1E)-2-(5-Chloro-2-thienyl)-1-propen-1-yl]sulfonyl}amino)-2-oxo-1-pyrrolidinyl]-3-fluoro-N-(2-hydroxyethyl)-N-methylbenzamide]",> 6.00
2,"O=C(NCc1ccncc1)c1ccc(N2CCC(NS(=O)(=O)/C=C/c3ccc(Cl)s3)C2=O)c(F)c1 (centres unmarked) [Example 8, 4-[3-({[(E)-2-(5-Chloro-2-thienyl)ethenyl]sulfonyl}amino)-2-oxo-1-pyrrolidinyl]-3-fluoro-N-(4-pyridinylmethyl)benzamide]",> 6.00
3,"C/C(=C\S(=O)(=O)NC1CCN(c2ccc(C(=O)N(C)CCS(C)(=O)=O)cc2F)C1=O)c1ccc(Cl)s1 (centres unmarked) [Example 4, 4-[3-({[(1E)-2-(5-Chloro-2-thienyl)-1-propen-1-yl]sulfonyl}amino)-2-oxo-1-pyrrolidinyl]-3-fluoro-N-methyl-N-[2-(methylsulfonyl)ethyl]benzamide]",> 7.00
4,CN(CCN)C(=O)c1ccc(N2CCC(NS(=O)(=O)c3cc4ccc(Cl)cc4s3)C2=O)c(F)c1 (centres unmarked) [Example 28],> 6.00
5,"O=C(NCc1cccnc1)c1ccc(N2CCC(NS(=O)(=O)/C=C/c3ccc(Cl)s3)C2=O)c(F)c1 (centres unmarked) [Example 9, 4-[3-({[(E)-2-(5-Chloro-2-thienyl)ethenyl]sulfonyl}amino)-2-oxo-1-pyrrolidinyl]-3-fluoro-N-(3-pyridinylmethyl)benzamide]",> 6.00
6,"CN(C)CCN(C)C(=O)c1ccc(N2CCC(NS(=O)(=O)c3cc4ccc(Cl)cc4s3)C2=O)c(F)c1 (centres unmarked) [Example 25, 4-(3-{[(6-Chloro-1-benzothien-2-yl)sulfonyl]amino}-2-oxo-1-pyrrolidinyl)-N-[2-(dimethylamino)ethyl]-3-fluoro-N-methylbenzamide formate]",> 6.00
7,"CN(CCc1cccnc1)C(=O)c1ccc(N2CCC(NS(=O)(=O)c3cc4ccc(Cl)cc4s3)C2=O)c(F)c1 (centres unmarked) [Example 27, 4-(3-{[(6-Chloro-1-benzothien-2-yl)sulfonyl]amino}-2-oxo-1-pyrrolidinyl)-3-fluoro-N-methyl-N-[2-(3-pyridinyl)ethyl]benzamide]",> 7.00
8,"CNCCN(C)C(=O)c1ccc(N2CCC(NS(=O)(=O)c3cc4ccc(Cl)cc4s3)C2=O)c(F)c1 (centres unmarked) [Example 26, 4-(3-{[(6-Chloro-1-benzothien-2-yl)sulfonyl]amino}-2-oxo-1-pyrrolidinyl)-3-fluoro-N-methyl-N-[2-(methylamino)ethyl]benzamide formate]",> 7.00
9,"C/C(=C\S(=O)(=O)NC1CCN(c2ccc(C(=O)N(C)CCN(C)C)cc2F)C1=O)c1ccc(Cl)s1 (centres unmarked) [Example 29, 4-[3-({[(1E)-2-(5-chloro-2-thienyl)-1-propen-1-yl]sulfonyl}amino)-2-oxo-1-pyrrolidinyl]-N-[2-(dimethylamino)ethyl]-3-fluoro-N-methylbenzamide formate]",> 7.00
